These results are taken from patent US7595340B2, “Serotonin and norepinephrine reuptake inhibitor and uses thereof” (Wyeth, priority 2005, dated 2009).

Series [1] addresses human serotonin transporter (Homo sapiens, UniProt P31645). Description: human serotonin transporter assay (in-house). The class given is binding. To be noted: initial experiments, in-house assays. An excerpt: In initial experiments using in-house assays, 4-[2-dimethylamino-1-(4-hydroxy-phenyl)-ethyl]-tetrahydro-pyran-4-ol has been found active in a human serotonin transporter assay.

A further series in a line: pH-solubility profile. The format is physicochemical. To be noted: aqueous solution, thermodynamic from solid. The source says: FIG. 4 provides a chart of the pH - solubility profile of 4-[2-dimethylamino-1-(4-phenyl)-ethyl-tetrahydro-pyran-4-ol.
Series [2] is described as follows: Solution stability in aqueous solutions. The class given is physicochemical. To be noted: room temperature, all aqueous solutions (pH 1.25-8.8).
Another series is described as follows: Hygroscopicity profile. The format is physicochemical. An excerpt:
FIG. 2 provides a chart of the hygroscopicity profile of 4-[2-dimethylamino-1-(4-phenyl)-ethyl-tetrahydro-pyran-4-ol.

The structures appear in SMILES notation. In brackets after ≈: the same amount, converted by molar mass.

human serotonin transporter, sequence (P31645 whole entry): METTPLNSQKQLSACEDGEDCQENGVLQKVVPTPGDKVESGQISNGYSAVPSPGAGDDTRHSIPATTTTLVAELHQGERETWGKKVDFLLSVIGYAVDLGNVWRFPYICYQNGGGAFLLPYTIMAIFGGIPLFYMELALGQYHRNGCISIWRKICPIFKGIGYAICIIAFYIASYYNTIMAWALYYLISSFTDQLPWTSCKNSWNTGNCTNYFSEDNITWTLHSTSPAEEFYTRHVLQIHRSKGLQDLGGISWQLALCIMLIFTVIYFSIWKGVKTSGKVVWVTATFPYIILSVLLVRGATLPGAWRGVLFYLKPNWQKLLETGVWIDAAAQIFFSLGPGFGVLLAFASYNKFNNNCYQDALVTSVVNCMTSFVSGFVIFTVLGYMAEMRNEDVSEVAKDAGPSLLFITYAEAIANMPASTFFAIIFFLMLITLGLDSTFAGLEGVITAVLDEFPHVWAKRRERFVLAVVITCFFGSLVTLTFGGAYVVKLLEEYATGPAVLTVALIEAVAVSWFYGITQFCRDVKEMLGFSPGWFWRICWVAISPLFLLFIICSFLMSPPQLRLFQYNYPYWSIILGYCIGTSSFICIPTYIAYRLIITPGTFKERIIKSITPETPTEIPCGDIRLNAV

In the case of `CN(C)CC(c1ccc(O)cc1)C1(O)CCOCC1` (stereo not drawn) [4-[2-Dimethylamino-1-(4-Hydroxy-Phenyl)-ethyl]-Tetrahydro-Pyran-4-ol], the “activity in human serotonin transporter assay” value in series [1] is given as “active”. For the same compound, the solubility in “pH-solubility profile” (pH 4.4, aqueous buffer, Final pH 4.40) was 3910 µg/mL (≈ 14.7 mM); in “pH-solubility profile” (pH 7.1, aqueous buffer, Final pH 7.10), 3470 µg/mL (≈ 13.1 mM); in “pH-solubility profile” (pH 8.8, aqueous buffer, Final pH 8.80) it was 2960 µg/mL (≈ 11.2 mM); in “pH-solubility profile” (simulated gastric fluid, Final pH 1.25), 13600 µg/mL (≈ 51.1 mM). Besides, the “Solution Stability (time stable)” value in series [2] is reported as “at least 24 hours”. Further, in the series “Hygroscopicity profile”, the Hygroscopicity entry is on record as “Non-hygroscopic”. Also, the “Hygroscopicity, weight gain” value in “Hygroscopicity profile” (@ 70% RH) is listed as 2%; in the series “Hygroscopicity profile” (@ 90% RH, weight gain was lost when returned to 10% RH or 0% RH), 6%.

What is called solubility is the concentration that dissolves in the medium under given conditions. Read a high solubility as much dissolved substance.
